Test [1] has as its target T1, Isocitrate dehydrogenase [NADP] cytoplasmic (Homo sapiens, UniProt O75874, R132H). In words: Inhibition of N-terminal His-tagged IDH1 R132H mutant (unknown origin) expressed in Escherichia coli using alpha-KG and NADPH substrate assessed as suppression of 2-HG production incubated for 40 mins by LC-MS analysis.
The target in test [2] is T2, Isocitrate dehydrogenase [NADP] cytoplasmic (Homo sapiens, UniProt O75874, R132C). The test is described as follows: Inhibition of N-terminal His-tagged IDH1 R132C mutant (unknown origin) expressed in Escherichia coli using alpha-KG and NADPH substrate assessed as suppression of 2-HG production incubated for 40 mins by LC-MS analysis.
Test [3] addresses T1, Isocitrate dehydrogenase [NADP] cytoplasmic. The test is described as follows: Inhibition of IDH1 R132H mutant (unknown origin) assessed as reduction in NADPH consumption by diaphorase/resazurin-based assay. In general terms: Alamar Blue is a resazurin reagent that responds to reducing activity.
The target of test [4] is T2, Isocitrate dehydrogenase [NADP] cytoplasmic. The test is described as follows: Inhibition of IDH1 R132C mutant (unknown origin) assessed as reduction in NADPH consumption by diaphorase/resazurin-based assay.
Test [5] addresses T1, Isocitrate dehydrogenase [NADP] cytoplasmic. In words: Inhibition of IDH1 R132H mutant (unknown origin) catalytic activity using alpha-KG as substrate assessed as decrease in D-2-HG production after 45 mins by LC-MS/MS analysis.
The target in test [6] is T2, Isocitrate dehydrogenase [NADP] cytoplasmic. The test is described as follows: Inhibition of IDH1 R132C mutant (unknown origin) catalytic activity using alpha-KG as substrate assessed as decrease in D-2-HG production after 45 mins by LC-MS/MS analysis.
The target of test [7] is T3, Isocitrate dehydrogenase [NADP], mitochondrial (Homo sapiens, UniProt P48735, R172K). In words: Inhibition of IDH2 R172K mutant (40 to end residues) (unknown origin) using alpha-KG as substrate after 120 mins in presence of NADPH by resazurin-based assay.
Test [8] concerns the target T2, Isocitrate dehydrogenase [NADP] cytoplasmic. The test is described as follows: Inhibition of IDH1 R132C mutant (unknown origin) using alpha-KG as substrate after 60 mins by resazurin based assay.
Test [9] deals with T1, Isocitrate dehydrogenase [NADP] cytoplasmic. In words: Inhibition of IDH1 R132H mutant (unknown origin) assessed as reduction in NADPH consumption using alpha-KG as substrate incubated for 45 mins by diaphorase and resazurin dye based assay.
Test [10] deals with T2, Isocitrate dehydrogenase [NADP] cytoplasmic. In words: Inhibition of IDH1 R132C mutant (unknown origin) assessed as reduction in NADPH consumption using alpha-KG as substrate incubated for 45 mins by diaphorase and resazurin dye based assay.
Test [11] shares this target. The test is described as follows: Inhibition of IDH1 R132C mutant (unknown origin) by kinase-Glo luminescent assay. (Kinase-Glo measures the ATP left after a reaction by luminescence.)
Test [12] has as its target T4, Isocitrate dehydrogenase [NADP], mitochondrial (Homo sapiens, UniProt P48735, R140Q). The test is described as follows: Inhibition of IDH2 R140Q mutant in human U87MG cells assessed as reduction in 2-HG levels after 48 hrs […]. It counts as cell-based.
Test [13] has as its target T3, Isocitrate dehydrogenase [NADP], mitochondrial. In words: Inhibition of IDH2 R172K mutant (unknown origin) using alpha-KG as substrate after 60 mins in presence of NADPH by resazurin-based assay.
The target in test [14] is T4, Isocitrate dehydrogenase [NADP], mitochondrial. In words: Inhibition of IDH2 R140Q mutant (unknown origin) using alpha-KG as substrate after 60 mins in presence of NADPH by resazurin-based assay.
In test [15] the target is T3, Isocitrate dehydrogenase [NADP], mitochondrial. The test is described as follows: Inhibition of IDH2 R172K mutant (unknown origin) using alpha-KG as substrate after 90 mins in presence of NADPH by RF/MS analysis.
Test [16] has as its target T1, Isocitrate dehydrogenase [NADP] cytoplasmic. The test is described as follows: Inhibition of IDH1 R132H mutant (unknown origin) using alpha-KG as substrate after 90 mins.
Test [17] concerns the target T2, Isocitrate dehydrogenase [NADP] cytoplasmic. In words: Inhibition of IDH1 R132C mutant (unknown origin) using alpha-KG after 105 mins by NADPH depletion assay.
Test [18] concerns the target T1, Isocitrate dehydrogenase [NADP] cytoplasmic. The test is described as follows: Inhibition of IDH1 R132H mutant (unknown origin) using alpha-KG after 105 mins by NADPH depletion assay.
For test [19] the target is unchanged. In words: Inhibition of IDH1 R132H mutant in human HT-1080 cells assessed as suppression of 2-HG production incubated for 48 hrs by LC-MS analysis. It is filed as cell-based.
Test [20] has as its target T2, Isocitrate dehydrogenase [NADP] cytoplasmic. In words: Inhibition of N-terminal His-tagged IDH1 R132C mutant (unknown origin) expressed in Escherichia coli using alpha-KG as substrate assessed as decrease in D-2-HG production after 90 mins by quadrupole mass spectrometry.
In test [21] the target is T1, Isocitrate dehydrogenase [NADP] cytoplasmic. The test is described as follows: Inhibition of N-terminal His-tagged IDH1 R132H mutant (unknown origin) expressed in Escherichia coli using alpha-KG as substrate assessed as decrease in D-2-HG production after 90 mins by quadrupole mass spectrometry.

T4 sequence (P48735 40-452 R140Q limits assumed): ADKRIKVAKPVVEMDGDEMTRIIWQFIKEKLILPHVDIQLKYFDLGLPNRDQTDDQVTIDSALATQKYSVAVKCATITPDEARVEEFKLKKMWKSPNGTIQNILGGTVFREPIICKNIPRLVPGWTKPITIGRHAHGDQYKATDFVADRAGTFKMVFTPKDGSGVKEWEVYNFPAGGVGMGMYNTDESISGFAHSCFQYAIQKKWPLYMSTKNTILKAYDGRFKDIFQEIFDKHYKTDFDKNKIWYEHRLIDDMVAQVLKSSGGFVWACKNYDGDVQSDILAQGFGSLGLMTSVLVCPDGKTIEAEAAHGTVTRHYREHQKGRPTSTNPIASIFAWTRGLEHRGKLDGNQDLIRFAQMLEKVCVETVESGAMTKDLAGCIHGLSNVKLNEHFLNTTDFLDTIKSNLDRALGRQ
T2 sequence (O75874 2-414 R132C limits assumed): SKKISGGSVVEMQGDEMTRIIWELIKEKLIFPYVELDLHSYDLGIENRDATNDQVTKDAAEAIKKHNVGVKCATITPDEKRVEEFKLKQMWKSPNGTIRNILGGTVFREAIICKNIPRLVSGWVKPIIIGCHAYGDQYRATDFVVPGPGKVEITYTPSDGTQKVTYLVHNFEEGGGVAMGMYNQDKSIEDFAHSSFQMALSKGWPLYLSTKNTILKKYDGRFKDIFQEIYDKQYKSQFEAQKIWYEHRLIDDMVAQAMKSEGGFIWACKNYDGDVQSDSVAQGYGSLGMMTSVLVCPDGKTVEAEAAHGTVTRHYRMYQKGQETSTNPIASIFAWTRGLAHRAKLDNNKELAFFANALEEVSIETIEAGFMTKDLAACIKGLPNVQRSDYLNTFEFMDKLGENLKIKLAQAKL
T1 sequence (O75874 2-414 R132H limits assumed): as the sequence (O75874 2-414 R132C limits assumed) above, with C131H counted along it
T3 sequence (P48735 40-452 R172K limits assumed): as the sequence (P48735 40-452 R140Q limits assumed) above, with Q101R, R133K counted along it

`C=CC(=O)N1CCN(Cc2ccc([C@H](C)Nc3nc(F)cc(N4C(=O)OCC4(C)C)n3)cc2)CC1`: the IC50 in [1] and in [2] was < 100 nM throughout.

`O=C(NC1CC(F)(F)C1)[C@@H](c1ccccc1Cl)N(C(=O)[C@H](CO)Nc1ncccn1)c1cccc(F)c1`: the IC50 in test [3] and in test [4] was < 100 nM each time.

On to `C[C@H](Nc1nccc(N2C(=O)C[C@H](O)[C@@H]2Cc2ccccc2)n1)c1cc(-c2ccc(Cl)cc2)on1`, for which the IC50 in test [5] and in test [6] was < 100 nM throughout.

Turning to `C=CC(=O)N1CCN(Cc2ccc([C@H](C)Nc3nccc(N4C(=O)OC[C@@H]4[C@@H](C)O)n3)cc2)CC1`, the IC50 in [1] and in test [2] was < 100 nM each time.

`FC(F)(F)c1cc(Nc2nc(NOCC3CC3)nc(-c3cccc(C(F)(F)F)n3)n2)ccn1`: the IC50 in [7] was < 50 nM.

Regarding `CCONc1nc(Nc2ccnc(C(F)(F)F)c2)nc(-c2cccc(C(F)(F)F)n2)n1`, the IC50 in [7] is < 50 nM.

`C=CC(=O)N1CCN(Cc2ccc([C@H](C)Nc3nccc(N4C(=O)OCC4(C)C)n3)cc2)CC1`: the IC50 in test [1] and in test [2] was < 100 nM throughout.

With `CC(C)[C@H]1CNC(=O)N1c1ccnc(NC2(c3cn(-c4ccc(Cl)cc4)cn3)CC2)n1`, the IC50 in [8] is < 100 nM.

`Cc1noc(C2CCC(=O)N2c2nc(N[C@@H](C)c3nc(-c4ccc(Cl)cc4)no3)ncc2F)n1` (stereo partly specified): the IC50 in [5] and in [6] was < 100 nM in each case.

As for `CC(C)(O)CONc1nc(Nc2ccnc(C(F)(F)F)c2)nc(-c2cccc(C(F)(F)F)n2)n1`, in test [7], the IC50 is < 50 nM.

Regarding `COc1cc(N[C@@H](C)c2cc3cc(Cl)ccc3[nH]c2=O)ccc1C#N`, the IC50 in [9] and in test [10] was < 10 nM each time.

For `Cn1nccc1-c1cc2c(cc1F)Nc1ncc(F)cc1CN2C(=O)C1CCN(CC(F)(F)F)CC1`, in [11], the midpoint of inhibition, the IC50, lay at 3.5 nM.

Turning to `CC(C)Nc1nc(Nc2ccccc2)nc(-c2ccccc2Cl)n1`, the concentration for half-maximal inhibition (IC50) in test [12], in test [13] and in [14] was ≤ 100 nM in each case.

On to `C[C@H](Nc1nc(N2C(=O)OC[C@@H]2[C@H](C)F)c2cc[nH]c2n1)c1cn(-c2ccc(Cl)cc2)cn1`, for which the IC50 was determined as 6 nM in [15] and 2 nM in test [16].

For the compound `c1ccc(Nc2nc(NC3CC3)nc(-c3ccccc3)n2)cc1`, the IC50 in test [12], in test [13] and in test [14] was ≤ 100 nM in each case.

With `CCOc1ccc(Cl)cc1-n1c(C=C(C)C)c(C(=O)N2CCN[C@H](C)C2)cc(-c2nc(-c3ccc(C(F)(F)F)cc3)cs2)c1=O`, the IC50 in [17] and in test [18] was < 300 nM each time.

Turning to `COc1cc2[nH]c(=O)c([C@H](C)Nc3ncc(C#N)c(OC)n3)cc2cc1Cl`, the IC50 in test [9] and in test [10] was < 10 nM each time.

Regarding `C[C@H](Nc1nccc(N2C(=O)C[C@@H](O)[C@H]2Cc2ccccc2)n1)c1cn(-c2ccc(Cl)cc2)cn1`, the IC50 in test [5] and in [6] was < 100 nM in each case.

As to `COC(=O)Nc1ccnc(N[C@@H](C)c2cc3cc(Cl)ccc3[nH]c2=O)n1`, the IC50 in test [9] and in test [10] was < 10 nM throughout.

Consider `CCN(CC)CCOc1ccc(/C(=C(\Cl)c2ccccc2)c2ccccc2)cc1` [ZUCLOMIPHENE], for which the IC50 in test [19] came to 37900 nM.

Regarding `C=CC(=O)N1CC(COc2ccc([C@H](C)Nc3ncc4c(n3)N(C(C)C)C(=O)OC4)cc2)C1`, the IC50 in [20] and in [21] was < 100 nM throughout.

As for `C=CC(=O)N1CCN(Cc2ccc([C@H](C)Nc3ncc4c(n3)N(CC(C)C)C(=O)OC4)cc2)CC1`, the IC50 in [20] and in test [21] was < 100 nM in each case.

The compound `C[C@@H](Nc1nc(N2C(=O)OC[C@@H]2c2ccccc2)c2cn[nH]c2n1)c1cn(-c2ccc(Cl)cc2)cn1` came in with an IC50 in [16] of 28 nM.

As a reminder, the IC50 is the point on the concentration scale where inhibition reaches its midpoint.

For the origin of these results see ChEMBL document CHEMBL4308836, “Inhibitors of Mutant Isocitrate Dehydrogenases 1 and 2 (mIDH1/2): An Update and Perspective” (J Med Chem, 2018).
